Test results as given in patent US20260109707A1, “HETEROBIFUNCTIONAL COMPOUNDS AND METHODS OF TREATING DISEASE” (Halda Therapeutics OpCo. Inc., priority 2022, published 2026).
Where two headings read alike, the source gives them in different places.

Legend:
[1] = tested on: T-Rex 293 cell line SC3 cells lacking increased expression of androgen receptor protein; experiment: Cellular growth inhibition assay, T-Rex 293 SC3 cells without doxycycline (CellTiter-Glo, 72 hours); assay type: cell-based; settings: T-Rex 293 cell line SC3 cells not exposed to doxycycline (lacking increased androgen receptor expression)
Outline: (§1)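 Doxycycline (10 ng/mL) was either included or omitted to toggle wild-type androgen receptor expression in SC3 cells, a T-Rex 293 clone, grown in stripped-serum, phenol red-free medium. After 72 hours with compound, viable cells were quantified by CellTiter-Glo 2.0.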

[2] = tested on: VCaP cells; experiment: Cellular growth inhibition assay for VCaP cells (CellTiter-Glo, 72 hours); assay type: cell-based, human
Outline: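 Luminescent viability signal after 72 h of compound exposure gave GI50 values by four-parameter nonlinear regression. Compounds were added in 0.5% DMSO to cells plated 24 h earlier at 5000/well in DMEM containing 10% FBS.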

[3] = tested on: T-Rex 293 cell line SC3 cells having increased expression of androgen receptor protein due to exposure to doxycycline; experiment: Cellular growth inhibition assay, T-Rex 293 SC3 cells with doxycycline (CellTiter-Glo, 72 hours); assay type: cell-based; settings: T-Rex 293 SC3 cells with increased androgen receptor expression due to doxycycline (10 ng/mL)
Outline: as §1

[4] = tested on: T47D cells; experiment: Cellular growth inhibition assay for T47D cells (CellTiter-Glo, 72 hours); assay type: cell-based, human; settings: 72 hours treatment
Outline: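 Growth inhibition as GI50, fitted with four parameters to CellTiter-Glo luminescence after 72 h of compound exposure (0.5% DMSO). Cells were T47D, grown in insulin-supplemented (0.2 units/mL) DMEM with 10% FBS and treated one day post-seeding.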

Compound	GI50 ([1]; 72 h)	GI50 ([2]; Homo sapiens, VCaP, 72 h)	GI50 ([3]; 72 h)	GI50 ([4]; Homo sapiens, T47D, 72 h)	GI50 [1]	GI50 [2]	GI50 [3]	GI50 [4]
Cc1sc2c(c1C)C(c1ccc([C@H]3C[C@@H](C4CC5(CCN(c6ccc(C(=O)N[C@H]7CC[C@H](Oc8ccc(C#N)c(Cl)c8)CC7)nn6)CC5)C4)C3)cc1)=N[C@H](Cc1ncco1)c1nnc(C)n1-2 [I-382]	> 3 µM	0.5 to 1.5 µM	< 0.5 µM	< 0.5 µM	–	–	–	–
Cc1sc2c(c1C)C(c1ccc([C@H]3C[C@H](C4CC5(CCN(c6ccc(C(=O)N[C@H]7CC[C@H](Oc8ccc(C#N)c(Cl)c8)CC7)nn6)CC5)C4)C3)cc1)=N[C@H](Cc1ncco1)c1nnc(C)n1-2 [I-383]	> 3 µM	< 0.5 µM	< 0.5 µM	< 0.5 µM	–	–	–	–
Cc1sc2c(c1C)C(c1ccc(C[C@H]3C[C@]4(CCCN(c5ccc(C(=O)N[C@H]6CC[C@H](Oc7ccc(C#N)c(Cl)c7)CC6)nn5)C4)C3)nc1)=N[C@H](Cc1ncco1)c1nnc(C)n1-2 [I-384]	> 3 µM	> 3 µM	> 3 µM	> 3 µM	–	–	–	–
Cc1sc2c(c1C)C(c1ccc(C[C@H]3C[C@]4(CCCN(c5ccc(C(=O)N[C@H]6CC[C@H](Oc7ccc(C#N)c(Cl)c7)CC6)nn5)C4)C3)nc1)=N[C@@H](Cc1ncco1)c1nnc(C)n1-2 [I-385]	> 3 µM	< 0.5 µM	< 0.5 µM	0.5 to 1.5 µM	–	–	–	–
Cc1sc2c(c1C)C(c1ccc(N3CC(C4CCN(c5ccc(C(=O)N[C@H]6CC[C@H](Oc7ccc(C#N)c(Cl)c7)CC6)nn5)CC4)C3)cc1)=N[C@@H](Cc1ncco1)c1nnc(C)n1-2 [I-386]	< 0.5 µM	< 0.5 µM	< 0.5 µM	< 0.5 µM	–	–	–	–
Cc1sc2c(c1C)C(c1ccc(N3CC(C4CC5(C4)CN(c4ccc(C(=O)N[C@H]6CC[C@H](Oc7ccc(C#N)c(Cl)c7)CC6)nn4)C5)C3)cc1)=N[C@@H](Cc1ncco1)c1nnc(C)n1-2 [I-387]	< 0.5 µM	< 0.5 µM	< 0.5 µM	< 0.5 µM	–	–	–	–
Cc1sc2c(c1C)C(c1ccc(N3CCC4(CCN(c5ccc(C(=O)N[C@H]6CC[C@H](Oc7ccc(C#N)c(Cl)c7)CC6)nn5)CC4)C3)cc1)=N[C@@H](Cc1ncco1)c1nnc(C)n1-2 [I-388]	< 0.5 µM	< 0.5 µM	< 0.5 µM	< 0.5 µM	–	–	–	–
[2H]C([2H])(c1ccc(C2=N[C@@H](Cc3ncco3)c3nnc(C)n3-c3sc(C)c(C)c32)cc1)N1CCC2(CCCN(c3ccc(C(=O)N[C@H]4CC[C@H](Oc5ccc(C#N)c(Cl)c5)CC4)nn3)C2)C1 (stereo partly shown) [I-389]	1.5 to 3 µM	< 0.5 µM	< 0.5 µM	0.5 to 1.5 µM	–	–	–	–
[2H]C([2H])(c1ccc(C2=N[C@@H](Cc3ncco3)c3nnc(C)n3-c3sc(C)c(C)c32)cc1)N1CC2(CCCN(c3ccc(C(=O)N[C@H]4CC[C@H](Oc5ccc(C#N)c(Cl)c5)CC4)nn3)C2)C1 [I-390]	0.5 to 1.5 µM	< 0.5 µM	< 0.5 µM	0.5 to 1.5 µM	–	–	–	–
Cc1sc2c(c1C)C(c1ccc(C(C)(C)N3CC4(CCN(c5ccc(C(=O)N[C@H]6CC[C@H](Oc7ccc(C#N)c(Cl)c7)CC6)nn5)CC4)C3)cc1)=N[C@@H](Cc1ncco1)c1nnc(C)n1-2 [I-391]	> 3 µM	> 3 µM	< 0.5 µM	> 3 µM	–	–	–	–
Cc1sc2c(c1C)C(c1ccc(C(C)(C)N3CC4(CCCN(c5ccc(C(=O)N[C@H]6CC[C@H](Oc7ccc(C#N)c(Cl)c7)CC6)nn5)C4)C3)cc1)=N[C@@H](Cc1ncco1)c1nnc(C)n1-2 [I-392]	> 3 µM	0.5 to 1.5 µM	< 0.5 µM	> 3 µM	–	–	–	–
Cc1sc2c(c1C)C(c1ccc(CC(C)(C)N3CC4(CCCN(c5ccc(C(=O)N[C@H]6CC[C@H](Oc7ccc(C#N)c(Cl)c7)CC6)nn5)C4)C3)cc1)=N[C@@H](Cc1ncco1)c1nnc(C)n1-2 [I-393]	1.5 to 3 µM	< 0.5 µM	< 0.5 µM	< 0.5 µM	–	–	–	–
CC1=NN=C2C1c1sc(C)c(C)c1C(c1ccc(C#CC3CCN(c4ccc(C(=O)N[C@H]5CC[C@H](Oc6ccc(C#N)c(Cl)c6)CC5)nn4)CC3)cc1)=N[C@H]2Cc1ncco1 (stereo partly shown) [I-394]	< 0.5 µM	< 0.5 µM	< 0.5 µM	< 0.5 µM	–	–	–	–
Cc1sc2c(c1C)C(c1ccc(CCC[C@H]3CCCN(c4ccc(C(=O)N[C@H]5CC[C@H](OC6CCC(C#N)C(Cl)C6)CC5)nn4)CC3)cc1)=N[C@@H](Cc1ncco1)c1nnc(C)n1-2 (stereo partly shown) [I-395]	< 0.5 µM	< 0.5 µM	< 0.5 µM	< 0.5 µM	–	–	–	–
Cc1sc2c(c1C)C(c1ccc(CCCC3CCCN(c4ccc(C(=O)N[C@H]5CC[C@H](OC6CCC(C#N)C(Cl)C6)CC5)nn4)CC3)cc1)=N[C@@H](Cc1ncco1)c1nnc(C)n1-2 (stereo partly shown) [I-396]	< 0.5 µM	< 0.5 µM	< 0.5 µM	< 0.5 µM	–	–	–	–
Cc1sc2c(c1C)C(c1ccc(N3CCC4(CC3)CCN(c3ccc(C(=O)NC5CCC(Oc6ccc(C#N)c(Cl)c6)CC5)nn3)CC4)cc1)=N[C@@H](Cc1ncco1)c1nnc(C)n1-2 (stereo partly shown) [I-397]	< 0.5 µM	< 0.5 µM	< 0.5 µM	< 0.5 µM	–	–	–	–
Cc1sc2c(c1C)C(c1ccc(N3CCC4(CCCN(c5ccc(C(=O)N[C@H]6CC[C@H](Oc7ccc(C#N)c(Cl)c7)CC6)nn5)C4)CC3)cc1)=NC1(CC1)c1nnc(C)n1-2 [I-398]	> 3 µM	1.5 to 3 µM	< 0.5 µM	> 3 µM	–	–	–	–
Cc1sc2c(c1C)C(c1ccc(N3CCC4(CC3)CCN(c3ccc(C(=O)N[C@H]5CC[C@H](Oc6ccc(C#N)c(Cl)c6)CC5)nn3)C4)cc1)=NC1(CC1)c1nnc(C)n1-2 [I-399]	0.5 to 1.5 µM	< 0.5 µM	< 0.5 µM	1.5 to 3 µM	–	–	–	–
Cc1sc2c(c1C)C(c1ccc(N3CCC4(CC3)CCN(c3ccc(C(=O)N[C@H]5CC[C@H](Oc6ccc(C#N)c(Cl)c6)CC5)nn3)C4)cc1)=NCc1nnc(C)n1-2 [I-400]	0.5 to 1.5 µM	1.5 to 3 µM	< 0.5 µM	> 3 µM	–	–	–	–
Cc1sc2c(c1C)C(c1ccc(CCC3CCC4CN(c5ccc(C(=O)N[C@H]6CC[C@H](Oc7ccc(C#N)c(Cl)c7)CC6)nn5)CCN4C3)cc1)=NC(Cc1ncco1)c1nnc(C)n1-2 (stereo partly shown) [I-401]	–	–	–	–	> 3 µM	> 3 µM	> 3 µM	> 3 µM
Cc1sc2c(c1C)C(c1ccc(CCC3CCC4CN(c5ccc(C(=O)N[C@H]6CC[C@H](Oc7ccc(C#N)c(Cl)c7)CC6)nn5)CCN4C3)cc1)=NC(Cc1ncco1)c1nnc(C)n1-2 (stereo partly shown) [I-402]	–	–	–	–	> 3 µM	> 3 µM	< 0.5 µM	> 3 µM
Cc1sc2c(c1C)C(c1ccc(CCC3CCC4CN(c5ccc(C(=O)N[C@H]6CC[C@H](Oc7ccc(C#N)c(Cl)c7)CC6)nn5)CCN4C3)cc1)=NC(Cc1ncco1)c1nnc(C)n1-2 (stereo partly shown) [I-403]	–	–	–	–	< 0.5 µM	< 0.5 µM	< 0.5 µM	< 0.5 µM
Cc1sc2c(c1C)C(c1ccc(CCC3CCC4CN(c5ccc(C(=O)N[C@H]6CC[C@H](Oc7ccc(C#N)c(Cl)c7)CC6)nn5)CCN4C3)cc1)=NC(Cc1ncco1)c1nnc(C)n1-2 (stereo partly shown) [I-404]	–	–	–	–	< 0.5 µM	< 0.5 µM	< 0.5 µM	< 0.5 µM
Cc1sc2c(c1C)C(c1ccc(OC[C@H]3CC[C@]4(C3)CN(c3ccc(C(=O)N[C@H]5CC[C@H](Oc6ccc(C#N)c(Cl)c6)CC5)nn3)CCO4)cn1)=N[C@@H](Cc1ncco1)c1nnc(C)n1-2 [I-405]	< 0.5 µM	< 0.5 µM	< 0.5 µM	< 0.5 µM	–	–	–	–
Cc1sc2c(c1C)C(c1ccc(OC[C@H]3CC[C@@]4(CCCN(c5ccc(C(=O)N[C@H]6CC[C@H](Oc7ccc(C#N)c(Cl)c7)CC6)nn5)C4)C3)cn1)=N[C@@H](Cc1ncco1)c1nnc(C)n1-2 [I-406]	< 0.5 µM	< 0.5 µM	< 0.5 µM	< 0.5 µM	–	–	–	–
